In patent publication US12115152B2, “Pan-RAF kinase inhibitor and use thereof” (HEFEI INSTITUTES OF PHYSICAL SCIENCE, CHINESE ACADEMY OF …, priority 2019, dated 2024):

Key:
Assay type in all cases: cell-based
[1] = Effect on proliferation of cells, Cell Titer-Glo, 72 hours; settings: Mus musculus, BaF3 cells
Protocol: The compounds of the present invention were tested for their effect on growth of cancer cells (Table 2), to further evaluate the compounds herein for their inhibitory effect on proliferation of cancer cells and their selectivity in inhibiting proliferation of cancer cells. […]
In the example, solutions of the test compound in DMSO at different concentrations (0.000508 μM, 0.00152 μM, 0.00457 μM, 0.0137 μM, 0.0411 μM, 0.123 μM, 0.370 μM, 1.11 μM, 3.33 μM, 10 μM) was added to the above cells respectively. The cells were incubated for 72 hours. The number of viable cells was detected with a Cell Titer-Glo (Promega, USA) Cell Viability Assay Kit by quantifying the ATP in viable cells. The values of GI50 (unit) of the compounds of the present invention against each of the test cells were determined.

[2] = tested on: melanoma cell A375 (expressing BRAF-V600E mutant kinase); assay: Effect on proliferation of cancer cells, Cell Titer-Glo, 72 hours; settings: Homo sapiens, A-375
Protocol: (§1) The compounds of the present invention were tested for their effect on growth of cancer cells (Table 2), to further evaluate the compounds herein for their inhibitory effect on proliferation of cancer cells and their selectivity in inhibiting proliferation of cancer cells.
(§2) The cells were incubated for 72 hours. The number of viable cells was detected with a Cell Titer-Glo (Promega, USA) Cell Viability Assay Kit by quantifying the ATP in viable cells. The values of GI50 (unit) of the compounds of the present invention against each of the test cells were determined.

[3] = tested on: mouse BaF3-FL-BRAF-V600E (stably expressing full-length BRAF-V600E mutant kinase); assay: as above
Protocol: as §1, §2

[4] = tested on: colorectal cancer cell COLO205 (expressing BRAF-V600E mutant kinase); assay: as above; settings: Homo sapiens, COLO 205
Protocol: as §1, §2

Row | Compound | GI50 [2] | GI50 [3] | GI50 [4] | GI50 [1]
1 | Cc1ccc(NC(=O)c2cccc(Cl)c2)cc1-n1cc(-c2cccnc2)cn1 [compound 2, 3-chloro-N-(4-methyl-3-(4-(pyrid-3-yl)-1H-pyrazol-1-yl)phenyl)benzamide, reference compound] | 1600 nM | 240 nM | 3300 nM | 9300 nM
2 | Cc1ccc(NC(=O)c2cccc(C(F)(F)F)c2)cc1-n1cc(-c2cncc(OCC3CCOC3)c2)cn1 (centres unmarked) [Example 66, N-(4-methyl-3-(4-(5-((tetrahydrofuran-3-yl)methoxy)pyrid-3-yl)-1H-pyrazol-1-yl)phenyl)-3-(trifluoromethyl)benzamide] | 71 nM | 18 nM | 230 nM | 3000 nM
3 | Cc1ccc(NC(=O)c2cccc(C(C)(C)C#N)c2)cc1-n1cc(-c2cnccc2OC2CCOCC2)cn1 [Example 56, 3-(2-cyanoprop-2-yl)-N-(4-methyl-3-(4-(4-((tetrahydro-2H-pyran-4-yl)oxy)pyrid-3-yl)-1H-pyrazol-1-yl)phenyl)benzamide] | 77 nM | < 0.3 nM | 119 nM | 4100 nM
4 | Cc1ccc(NC(=O)Cc2cccc(C(F)(F)F)c2)cc1-n1cc(-c2cncc(-c3ccncc3)c2)cn1 [Example 71, N-(3-(4-([3,4′-bipyrid]-5-yl)-1H-pyrazol-1-yl)-4-methylphenyl)-2-(3-(trifluoromethyl)phenyl)acetamide] | 79 nM | 28 nM | 56 nM | 1100 nM
5 | Cc1ccc(NC(=O)c2cccc(C(F)(F)F)c2)cc1-n1cc(-c2cnccc2OC2COC2)cn1 [Example 82, N-(4-methyl-3-(4-(4-(oxetan-3-yloxy)pyrid-3-yl)-1H-pyrazol-1-yl)phenyl)-3-(trifluoromethyl)benzamide] | 97 nM | 4 nM | 83 nM | 3200 nM
6 | Cc1ccc(NC(=O)c2ccc(C)c(C(F)(F)F)c2)cc1-n1cc(-c2cncc(-c3ccncc3)c2)cn1 [Example 7, N-(3-(4-([3,4′-bipyridyl]-5-yl)-1H-pyrazol-1-yl)-4-methylphenyl)-4-methyl-3-(trifluoromethyl)benzamide] | 86 nM | 12 nM | 150 nM | 2400 nM
7 | Cc1ccc(NC(=O)c2cccc(C(F)(F)F)c2)cc1-n1cnc(-c2cnc3[nH]ccc3c2)c1 [Example 177, N-(3-(4-(1H-pyrrolo[2,3-b]pyrid-5-yl)-1H-imidazol-1-yl)-4-methylphenyl)-3-(trifluoromethyl)benzamide] | 120 nM |  | 65 nM | 2700 nM
8 | Cc1ccc(NC(=O)c2cccc(C(C)(C)C#N)c2)cc1-n1cc(-c2cnccc2OC2COC2)cn1 [Example 79, 3-(2-cyanoprop-2-yl)-N-(4-methyl-3-(4-(4-(oxetan-3-yloxy)pyrid-3-yl)-1H-pyrazol-1-yl)phenyl)benzamide] | 61 nM | < 0.3 nM | 57 nM | 4800 nM
9 | Cc1ccc(NC(=O)c2cccc(C(C)(C)C#N)c2)cc1-n1cnc(-c2cnc3[nH]ccc3c2)c1 [Example 176, N-(3-(4-(1H-pyrrolo[2,3-b]pyrid-5-yl)-1H-imidazol-1-yl)-4-methylphenyl)-3-(2-cyanoprop-2-yl)benzamide] | 89 nM |  | 130 nM | 920 nM
10 | Cc1ccc(NC(=O)c2cccc(C(C)(C)C#N)c2)cc1-n1cnc(-c2cncc(N3CCOCC3)c2)c1 [Example 109, 3-(2-cyanoprop-2-yl)-N-(4-methyl-3-(4-(5-morpholinopyrid-3-yl)-1H-imidazol-1-yl)phenyl)benzamide] | 60 nM |  | 110 nM | 3800 nM
11 | Cc1ccc(NC(=O)c2ccc(C)c(C(F)(F)F)c2)cc1-n1cnc(-c2cnc3[nH]ccc3c2)c1 [Example 175, N-(3-(4-(1H-pyrrolo[2,3-b]pyrid-5-yl)-1H-imidazol-1-yl)-4-methylphenyl)-4-methyl-3-(trifluoromethyl)benzamide] | 100 nM |  | 150 nM | 1600 nM
12 | Cc1ccc(NC(=O)c2cccc(C(F)(F)F)c2)cc1-n1cc(-c2cnc3[nH]ccc3c2)cn1 [Example 170, N-(3-(4-(1H-pyrrolo[2,3-b]pyrid-5-yl)-1H-pyrazol-1-yl)-4-methylphenyl)-3-(trifluoromethyl)benzamide] | 270 nM |  | 280 nM | 4800 nM

Molecules with a lower GI50 [2], results first:

Row | GI50 [2] | GI50 [3] | GI50 [4] | Compound | GI50 [1]
13 | 27 nM | 4.3 nM | 66 nM | Cc1ccc(NC(=O)c2cccc(C(C)(C)C#N)c2)cc1-n1cc(-c2cnccc2OC2CCOC2)cn1 (centres unmarked) [Example 68, 3-(2-cyanoprop-2-yl)-N-(4-methyl-3-(4-(4-((tetrahydrofuran-3-yl)oxy)pyrid-3-yl)-1H-pyrazol-1-yl)phenyl)benzamide] | 1800 nM
14 | 14 nM | 4.1 nM | 32 nM | Cc1ccc(NC(=O)c2cccc(C(F)(F)F)c2)cc1-n1cc(-c2cncc(OCCCN3CCOCC3)c2)cn1 [Example 48, N-(4-methyl-3-(4-(5-(3-morpholinopropoxy)pyrid-3-yl)-1H-pyrazol-1-yl)phenyl)-3-(trifluoromethyl)benzamide] | 520 nM
15 | 16 nM | 1.3 nM | 35 nM | Cc1ccc(NC(=O)c2cccc(C(C)(C)C#N)c2)cc1-n1cc(-c2cncc(OCC3CCOC3)c2)cn1 (centres unmarked) [Example 65, 3-(2-cyanoprop-2-yl)-N-(4-methyl-3-(4-(5-((tetrahydrofuran-3-yl)methoxy)pyrid-3-yl)-1H-pyrazol-1-yl)phenyl)benzamide] | 1700 nM
16 | 17 nM | 1.3 nM | 15 nM | Cc1ccc(NC(=O)c2cccc(C(C)(C)C#N)c2)cc1-n1cc(-c2cncc(OCCCN3CCOCC3)c2)cn1 [Example 47, 3-(2-cyanoprop-2-yl)-N-(4-methyl-3-(4-(5-(3-morpholinopropoxy)pyrid-3-yl)-1H-pyrazol-1-yl)phenyl)benzamide] | 600 nM
17 | 19 nM | 1.9 nM | 17 nM | Cc1ccc(NC(=O)c2cccc(C(C)(C)C#N)c2)cc1-n1cc(-c2cncc(-c3ccncc3)c2)cn1 [Example 5, N-(3-(4-([3,4′-bipyridyl]-5-yl)-1H-pyrazol-1-yl)-4-methylphenyl)-3-(2-cyanoprop-2-yl)benzamide] | 510 nM
18 | 41 nM | 7.2 nM | 52 nM | Cc1ccc(NC(=O)Cc2cccc(C(F)(F)F)c2)cc1-n1cc(-c2cncc(OCCCN3CCOCC3)c2)cn1 [Example 49, N-(4-methyl-3-(4-(5-(3-morpholinopropoxy)pyrid-3-yl)-1H-pyrazol-1-yl)phenyl)-2-(3-(trifluoromethyl)phenyl)acetamide] | 500 nM
19 | 47 nM | 10 nM | 52 nM | Cc1ccc(NC(=O)c2cccc(C(C)(C)C#N)c2)cc1-n1cc(-c2cncc(-c3ccc(N4CCN(C)CC4)cc3)c2)cn1 [Example 30, N-(4-methyl-3-(4-(5-(4-(4-methylpiperazin-1-yl)phenyl)pyrid-3-yl)-1H-pyrazol-1-yl)phenyl)-3-(2-cyanoprop-2-yl)benzamide] | 
20 | 57 nM | 7.5 nM | 53 nM | Cc1ccc(NC(=O)c2cccc(C(C)C#N)c2)cc1-n1cc(-c2cncc(-c3ccncc3)c2)cn1 (centres unmarked) [Example 6, N-(3-(4-([3,4′-bipyridyl]-5-yl)-1H-pyrazol-1-yl)-4-methylphenyl)-3-(1-cyanoethyl)benzamide] | 780 nM
